doi:10.1101/2024.04.22.590490v1 (biorxiv, 2024)

Tests used:
GSK-3β = GSK-3β (Homo sapiens, UniProt P49841); test: ADP-Glo luminescent kinase assay; type: biochemical
GSK-3α = GSK-3α (Homo sapiens, UniProt P49840); test: ADP-Glo luminescent kinase assay; type: biochemical
Sequence of GSK-3α (P49840 2-483): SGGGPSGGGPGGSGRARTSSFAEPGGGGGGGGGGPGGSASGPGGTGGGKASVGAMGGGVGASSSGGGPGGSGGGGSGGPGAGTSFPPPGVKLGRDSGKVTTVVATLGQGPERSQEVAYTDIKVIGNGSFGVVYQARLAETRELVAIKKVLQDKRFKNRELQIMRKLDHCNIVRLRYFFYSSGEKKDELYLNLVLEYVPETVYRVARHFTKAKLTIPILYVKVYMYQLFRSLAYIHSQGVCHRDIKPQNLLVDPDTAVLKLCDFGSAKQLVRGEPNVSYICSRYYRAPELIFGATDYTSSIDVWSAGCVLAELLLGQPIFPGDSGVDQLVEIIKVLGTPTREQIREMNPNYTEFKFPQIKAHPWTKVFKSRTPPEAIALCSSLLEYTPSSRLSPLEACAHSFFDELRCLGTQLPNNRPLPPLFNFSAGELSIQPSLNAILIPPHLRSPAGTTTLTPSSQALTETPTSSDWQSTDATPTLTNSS

Sequence of GSK-3β (P49841 whole entry): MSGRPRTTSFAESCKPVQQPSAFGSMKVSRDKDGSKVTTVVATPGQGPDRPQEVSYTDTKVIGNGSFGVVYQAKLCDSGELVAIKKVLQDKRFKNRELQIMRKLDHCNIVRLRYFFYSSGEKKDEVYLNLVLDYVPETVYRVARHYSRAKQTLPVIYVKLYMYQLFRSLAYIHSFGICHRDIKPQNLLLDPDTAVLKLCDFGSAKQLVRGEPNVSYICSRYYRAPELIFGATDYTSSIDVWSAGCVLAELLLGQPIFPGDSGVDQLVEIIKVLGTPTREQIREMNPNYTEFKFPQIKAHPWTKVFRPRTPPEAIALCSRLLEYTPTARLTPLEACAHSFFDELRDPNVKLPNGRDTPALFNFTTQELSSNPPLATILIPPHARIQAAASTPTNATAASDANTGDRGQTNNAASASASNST

| IC50 (GSK-3β) | IC50 (GSK-3α) | Structure (SMILES) |
| --- | --- | --- |
| 4.24 µM | 2.27 µM | CC(C)=CCc1cc2c(cc1O)oc(=O)c1c3ccc(O)cc3oc21 [Psoralidin] |
| 2.25 µM | 5.14 µM | O=C(/C=C/c1ccc(O)c(O)c1)O[C@H](Cc1ccc(O)c(O)c1)C(=O)O [Rosmarinic acid] |
